For six molecules, GI50 and TGI results are on record in PubChem BioAssay (NCI).

Some test systems named below: HOP-92 NSCLC; UACC-62 melanoma; 786-0 renal; RXF 393 renal; MALME-3M melanoma; SW-620 colon; HT29 colon; UO-31 renal; SK-MEL-28 melanoma; MDA-MB-231 breast.
Holding throughout (experiment): NCI anticancer screen, dose series, 48 h

SMILES strings stand for the structures.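 Interpolation was linear, between the two tested concentrations surrounding the appropriate level; five concentrations were tested over 48 hours in 96-well plates. Abbreviation: GI50, concentration required for 50% inhibition of growth. TGI is the concentration that stops growth completely.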 A value given as a limit tells only on which side of the number the result lay.

For the molecule `CC(CN1CCN(CCOCCO)CC1)CN1c2ccccc2Sc2ccc(Cl)cc21` (stereo not given), the GI50 in the assay on HOP-92 NSCLC is 1.01 µM; in the assay with UACC-62 melanoma it was 1.75 µM; with 786-0 renal, 4.79 µM; in the assay with RXF 393 renal, 1.58 µM; in the assay on MALME-3M melanoma, 1.75 µM; with SW-620 colon, 1.84 µM. Further, the GI50 in the assay on HT29 colon was 1.79 µM; in the assay on UO-31 renal, 3.3 µM; in the assay on SK-MEL-28 melanoma, 1.75 µM; in the assay with MDA-MB-231 breast it was 1.86 µM. Further, the TGI stood at 4.63 µM with HOP-92 NSCLC; 3.44 µM in the assay with UACC-62 melanoma; 18 µM with 786-0 renal; 4.85 µM with RXF 393 renal; 3.45 µM in the assay on MALME-3M melanoma; 3.58 µM in the assay on SW-620 colon. The TGI stood at 3.36 µM with HT29 colon, 16.4 µM in the assay with UO-31 renal, 3.22 µM in the assay with SK-MEL-28 melanoma and 4.79 µM with MDA-MB-231 breast.
Take `CC(C)(C)c1n[nH]c(=S)n(/N=C/c2ccc(F)c(Oc3ccccc3)c2)c1=O`: the GI50 in the assay with HOP-92 NSCLC was 27.3 µM; in the assay on UACC-62 melanoma, 38.2 µM; in the assay on 786-0 renal, 34.9 µM; with RXF 393 renal, 38.2 µM; with MALME-3M melanoma, 28.5 µM; in the assay with SW-620 colon it was 34.7 µM. Moreover, the GI50 in the assay on HT29 colon was 43.4 µM; in the assay on UO-31 renal, 33.9 µM; with SK-MEL-28 melanoma, 20.7 µM; in the assay with MDA-MB-231 breast, 34.6 µM. For the same molecule, the TGI in the assay with HOP-92 NSCLC was greater than 100 µM; in the assay on UACC-62 melanoma it was greater than 100 µM; with 786-0 renal it was greater than 100 µM; with RXF 393 renal it was greater than 100 µM; in the assay on MALME-3M melanoma, 91.5 µM; with SW-620 colon, greater than 100 µM. In addition, the TGI with HT29 colon, with UO-31 renal, with SK-MEL-28 melanoma and with MDA-MB-231 breast was greater than 100 µM in each case.
With `C[C@]12CC[C@H]3[C@@H](CCC4=CC(=O)CC[C@@H]43)[C@@H]1CC[C@@H]2OC(=O)CCc1ccccc1`, the GI50 was 20.1 µM in the assay with HOP-92 NSCLC; 9.64 µM in the assay on UACC-62 melanoma; 23.9 µM in the assay on 786-0 renal; 19.6 µM in the assay on RXF 393 renal; 17 µM with MALME-3M melanoma; 20.3 µM with SW-620 colon. The GI50 in the assay with HT29 colon was 18.2 µM; with UO-31 renal it was 18.6 µM; with SK-MEL-28 melanoma it was 16.8 µM; with MDA-MB-231 breast, 18.9 µM. In addition, the TGI with HOP-92 NSCLC came to 64.4 µM; in the assay on UACC-62 melanoma, 35.7 µM; with 786-0 renal it was 50.8 µM; in the assay with RXF 393 renal, 43.5 µM; in the assay with MALME-3M melanoma it was 34.4 µM; in the assay with SW-620 colon it was 47.2 µM. Also, the TGI in the assay with HT29 colon was 56.5 µM; with UO-31 renal, 39.2 µM; in the assay on SK-MEL-28 melanoma, 37 µM; in the assay on MDA-MB-231 breast, 42.2 µM.
For `C=C1CC[C@@H]2[C@](C)(COC(C)=O)[C@@H](O)CC[C@@]2(C)[C@@H]1COc1ccc2ccc(=O)oc2c1`, the GI50 with HOP-92 NSCLC is greater than 100 µM; in the assay on UACC-62 melanoma it was greater than 100 µM; in the assay with 786-0 renal, 31 µM; with RXF 393 renal, 14.7 µM; in the assay with MALME-3M melanoma it was greater than 100 µM; with SW-620 colon, greater than 100 µM. Besides, the GI50 in the assay with HT29 colon, in the assay on UO-31 renal, in the assay with SK-MEL-28 melanoma and with MDA-MB-231 breast was greater than 100 µM each time. Also, the TGI in the assay with HOP-92 NSCLC was greater than 100 µM; in the assay with UACC-62 melanoma it was greater than 100 µM; in the assay on 786-0 renal, greater than 100 µM; in the assay on RXF 393 renal it was 58.9 µM; with MALME-3M melanoma it was greater than 100 µM; in the assay with SW-620 colon it was greater than 100 µM. In addition, the TGI in the assay on HT29 colon, in the assay on UO-31 renal, in the assay on SK-MEL-28 melanoma and in the assay on MDA-MB-231 breast was greater than 100 µM each time.
As to `COc1ccc(-c2n[nH]nc2-c2cc(OC)c3c(c2OC)OCO3)cc1`, the GI50 in the assay on HOP-92 NSCLC was 0.685 µM; in the assay with UACC-62 melanoma it was 0.553 µM; in the assay on 786-0 renal, 3.07 µM; in the assay on RXF 393 renal, 1.1 µM; in the assay with MALME-3M melanoma it was 1.34 µM; with SW-620 colon, 0.348 µM. Further, the GI50 in the assay with HT29 colon is 0.48 µM; with UO-31 renal, 3.83 µM; in the assay with SK-MEL-28 melanoma, 1.95 µM; in the assay with MDA-MB-231 breast, 1.71 µM. For the same molecule, the TGI with HOP-92 NSCLC was 22.6 µM; in the assay with UACC-62 melanoma it was 14 µM; with 786-0 renal, 71.9 µM; in the assay with RXF 393 renal, 5.37 µM; in the assay with MALME-3M melanoma, greater than 100 µM; in the assay with SW-620 colon, greater than 95.6 µM. Besides, the TGI in the assay on HT29 colon was 13.7 µM; in the assay with UO-31 renal, 46.6 µM; in the assay on SK-MEL-28 melanoma it was greater than 100 µM; in the assay with MDA-MB-231 breast, 17.4 µM.
In the case of `COc1ccc(-c2cc(-c3ccccc3)nc(SCCCC(=O)NO)n2)cc1`, the GI50 with HOP-92 NSCLC was 1.71 µM; in the assay on UACC-62 melanoma it was 0.756 µM; in the assay with 786-0 renal, 0.573 µM; in the assay with RXF 393 renal, 0.338 µM; in the assay with MALME-3M melanoma it was 1 µM; in the assay with SW-620 colon it was 0.484 µM. For the same molecule, the GI50 in the assay with HT29 colon was 1.64 µM; in the assay on UO-31 renal, 0.239 µM; with SK-MEL-28 melanoma it was 1.25 µM; in the assay on MDA-MB-231 breast, 1.57 µM. The TGI amounted to 5.42 µM with HOP-92 NSCLC; 2.53 µM in the assay with UACC-62 melanoma; 3.49 µM in the assay on 786-0 renal; 1.4 µM in the assay with RXF 393 renal; 4.82 µM with MALME-3M melanoma; 4.85 µM with SW-620 colon. For the same molecule, the TGI came out at 10.9 µM in the assay on HT29 colon, 0.991 µM with UO-31 renal, 3.12 µM in the assay on SK-MEL-28 melanoma and 6.1 µM in the assay with MDA-MB-231 breast.
